Measured values published in patent publication US20070111966A1, “Method for the treatment and/or prevention of urinary disorders” (priority 2005, published 2007).

Legend:
[1] = test system: Sprague-Dawley rats; test: Example 1: consumption of drink after oral gavage of diuretic polyols; type: in vivo; details: for water consumption compared with the control (in words): after polyol gavage; for water consumption over four days: control batch A 11.2
Description: (§1) A batch of rats were orally administered doses of diuretic polyols so as to measure the diuretic effect of said polyols and their possible influence on the amount of water drunk. The study was carried out on a batch of thirty rats, for 4 days, and the trial doses were administered at a rate of 2 ml per animal and per day of solutions at 250 g/litre of polyols. Water is distributed to the animals ad libitum. The amounts of urine output and of drink consumed are measured by weighing.
(§2) The amounts of drink are expressed in grams per animal and per day. Diuresis is expressed in millilitres as a function of time. • Batch A: control batch • Batch B: erythritol gavage • Batch C: mannitol gavage • Batch D: isosorbide gavage • Batch E: 1/1 isosorbide-mannitol mixture
Consumption of Drink (Means on Ten Rats)

[2] = test system: Sprague-Dawley rats; test: Example 1: diuresis after oral gavage of diuretic polyols; type: in vivo; details: for Diuresis 45 min / Diuresis 1 h 35 min / Diuresis 3 h / Diuresis 5 h / Diuresis 7 h / Cumulative diuresis over 24 h / Diuresis Before gavage: means on ten rats; for Diuresis 45 min: control A 0.9; for Diuresis 1 h 35 min / Diuresis 7 h: control A 0.6; for Diuresis 3 h: control A 0.4; for Diuresis 5 h: control A 0.7; for Cumulative diuresis over 24 h: control A 11.7; for Diuresis Before gavage: control A 3.2
Description: as §1, §2
Diuresis (Means on Ten Rats, in Millilitres)

[3] = gavage 2 ml per animal and per day of 250 g/litre solution, means on ten rats

SMILES | water consumption compared with the control (in words) [1] | water consumption over four days [1, 3] [g/animal/day] | Diuresis 45 min [2] [millilitres] | Diuresis 1 h 35 min [2] [millilitres] | Diuresis 3 h [2] [millilitres] | Diuresis 5 h [2] [millilitres] | Diuresis 7 h [2] [millilitres] | Cumulative diuresis over 24 h [2] [millilitres] | Diuresis Before gavage [2] [millilitres] | water consumption ([1]; gavage 2 ml per animal and per day of 250 g/litre solution, means on ten rats, control batch A 24.8) [g/animal/day] | time from which an increase in diuresis is observed ([2]; after gavage) [h]
O[C@@H]1CO[C@H]2[C@@H]1OC[C@@H]2O [D (isosorbide), isosorbide] | very slightly greater than the control | 13.1 | 1.5 | 1.1 | 1.2 | 1.1 | 0.6 | 13.0 | 2.4 | – | –
OC[C@@H](O)[C@@H](O)[C@H](O)[C@H](O)CO [C (mannitol), mannitol] | very slightly greater than the control | 13.9 | 0.3 | 0.3 | 0.7 | 0.5 | 1.3 | 16.5 | 3.0 | – | –
OC[C@@H](O)[C@@H](O)CO [B (erythritol), erythritol] | not greater than the control | – | 0.21 | 0.99 | 1.38 | 1.21 | 0.83 | 18.43 | 1.02 | 17.9 | ≥ 3
